Source: patent US10775375B2, “Methods for identifying modulators of calcium-sensing receptors” (MARS, INCORPORATED, priority 2014, dated 2020)
Like-named read-outs stand apart in the source and are kept apart here.

Biological target: T1, feline calcium-sensing receptor (fCaSR) (Felis catus, UniProt C7FF08, X1044R)
T1 sequence (C7FF08 1-1081 X1044R): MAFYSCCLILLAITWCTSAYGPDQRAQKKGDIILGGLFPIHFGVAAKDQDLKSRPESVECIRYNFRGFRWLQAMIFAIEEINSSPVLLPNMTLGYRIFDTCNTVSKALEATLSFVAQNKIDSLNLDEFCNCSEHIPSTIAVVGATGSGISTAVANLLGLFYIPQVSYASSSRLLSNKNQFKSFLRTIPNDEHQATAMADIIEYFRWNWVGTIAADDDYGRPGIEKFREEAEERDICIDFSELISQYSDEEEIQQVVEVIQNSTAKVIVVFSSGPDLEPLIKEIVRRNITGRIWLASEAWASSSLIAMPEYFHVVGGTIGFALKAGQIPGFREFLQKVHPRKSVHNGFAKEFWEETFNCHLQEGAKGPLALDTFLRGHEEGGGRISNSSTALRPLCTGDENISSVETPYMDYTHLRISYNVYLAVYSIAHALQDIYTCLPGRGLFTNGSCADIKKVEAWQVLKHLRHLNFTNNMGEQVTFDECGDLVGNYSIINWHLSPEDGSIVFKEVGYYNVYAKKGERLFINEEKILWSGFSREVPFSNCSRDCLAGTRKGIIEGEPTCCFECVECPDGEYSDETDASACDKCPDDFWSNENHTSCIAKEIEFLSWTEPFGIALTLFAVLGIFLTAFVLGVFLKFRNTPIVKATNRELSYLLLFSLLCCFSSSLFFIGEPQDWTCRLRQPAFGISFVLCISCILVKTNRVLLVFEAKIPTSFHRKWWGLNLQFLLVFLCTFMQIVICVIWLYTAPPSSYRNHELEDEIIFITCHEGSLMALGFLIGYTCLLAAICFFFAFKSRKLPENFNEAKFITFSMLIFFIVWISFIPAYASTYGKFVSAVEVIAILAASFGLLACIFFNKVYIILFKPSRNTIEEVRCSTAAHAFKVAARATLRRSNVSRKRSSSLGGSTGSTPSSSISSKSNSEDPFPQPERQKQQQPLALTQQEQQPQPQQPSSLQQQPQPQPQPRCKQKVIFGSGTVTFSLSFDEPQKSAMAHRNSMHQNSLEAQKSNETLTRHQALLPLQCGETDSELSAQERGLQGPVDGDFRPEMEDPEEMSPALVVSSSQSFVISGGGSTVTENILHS
Assay: In vitro cellular luminescence assay for activation of fCaSR (HEK T-Rex/natClytin clone K 5.1, FLIPR Tetra), agonist mode and PAM mode
Type: cell-based
Conditions: for CaSR agonists and PAMs (mode of action on CaSR): classification as agonist, PAM or not active
From the text: Summary. The full length coding sequence of the calcium-sensing receptor (CaSR, a GPCR (3, C or Glutamate family), naturally coupled to Gαq/11 and Gαi (ligand-directed signaling)) from Felis catus (fCaSR) having the sequence described by SEQ ID NO: 7 was synthesized and sub-cloned into suitable expression vectors. The cat CaSR expression constructs were stably transfected in two mammalian cell lines, the HEK-natClytin and the HEK T-Rex/natClytin, two cell lines that allow for detection of changes in intracellular calcium levels through luminescence. A pure selected clone (K 5.1) was used to analyze 12 CaSR ligands (including calcium as a reference agonist control) in a high-throughput screening (HTS) multi-plate test for agonist and positive allosteric modulator (PAM) effects.
A final pure selected clone (K 5.1) was analyzed in a HTS multi-plate test for agonist or positive allosteric modulator (PAM) effects of 12 CaSR ligands (including calcium as a reference agonist control). 10.000 cw of K 5.1 were seeded on poly-D-lys coated 384 well MTPs in medium containing 1 μg/mL of Doxycycline. Screening with the 12 ligands (including calcium control) was conducted 24 hours later. […] For each ligand that activated CaSR as an agonist or PAM, the EC50 value of the ligand was determined.
Detection of CaSR receptor activation. Transfected cells were analyzed for a response to a reference agonist (calcium) or various CaSR ligands by detecting Ca^2+ sensitive photoprotein luminescence. The experiments were performed in a 384 well format according to one of the following procedures: • 7.500 cw were plated on poly-D-lys coated 384 well microtiter plates (MTPs). 24 h later, medium was manually discarded and replaced with fresh medium containing 1 μg/mL of Doxycycline. Experiments were then carried out 48 h after seeding. • 10.000 cw were plated on poly-D-lys coated 384 well MTPs in medium containing 1 μg/mL of Doxycycline. Experiments were carried out 24 hrs later.
On the day of the experiment, medium was removed by plate overthrow and tapping on a paper towel. Cells were then incubated for 3-4 hrs at 37° C. with 10 μM coelenterazine dissolved in 2 mM Ca^2+ or Ca^2+-Free Tyrode's Buffer (20 μL). Cells were exposed to calcium control and/or ligand and the luminescence changes over a period of 1 minute (at 35.000 gain of sensitivity) were monitored using a FLIPR® Tetra screening system. For agonist evaluation, a single exposure protocol was applied (ligands 1º injection, 20 μL-2×), whereas for PAM evaluation a double injection protocol was applied as following: • 1° injection: ligands dose-response (20 μL-2×) • 2° injection: Reference agonist EC20 (20 μL-3×) • Data Analysis. FLIPR® Tetra measurements were analysed with Screenworks© software (Molecular Devices, Version 3.0.1.4) and data were exported as Maximum statistics of Absolute Response (RLU) calculated after compound injection. RLU is obtained applying “Subtract Bias on Sample n” (where n=Time point of compound injection). Mean and standard deviation values were calculated on the exported data with Excel software, and then values were used to create sigmoidal dose-response curves (variable slope) or histograms with GraphPad PRISM® software (Version 6). The obtained EC50/IC50 values were used to calculate EC50/[…] values according to the following formula: ECX=[(X/100−X)1/HillSlope]*EC50
Cell lines, Medium and Culture Conditions. The experiments were done using HEK-natClytin or HEK T-Rex/natClytin reporter cell lines that were generated by stable transfection of the photoprotein natClytin into HEK-293 or HEK-293 T-Rex (HEK T-Rex, Invitrogen) cell lines respectively.
For experimental conditions, cells were plated on poly-D-lys coated 384 well MTPs according to one of the following conditions: • 7.500 cw.

Molecule | CaSR agonists and PAMs (mode of action on CaSR) | EC50 [mM] | other results
Calindol | Calindol (PAM) | – | CaSR agonists and PAMs (mode of action on CaSR) (listed as calindol): activated CaSR as PAMs
NCCCCN [Putrescine] | Putrescine (not active) | – | –
O.O.[Ca+2].[Cl-].[Cl-] [Calcium (Ca^2+), Calcium chloride (dihydrate)] | (agonist) | – | –
NCC1O[C@H](O[C@@H]2C(N)C[C@@H](N)C(O)C2O[C@@H]2O[C@H](CO)C(OC3O[C@@H](CN)C(O)C(O)[C@H]3N)C2O)C(N)C(O)[C@@H]1O (some centres unmarked) [Neomycin] | Neomycin (agonist) | 10 | –
NCCCNCCCCNCCCN [Spermine] | Spermine (agonist) | – | –
Poly-L-Arginine | Poly-L-Arginine (agonist) | – | Agonist EC50 (agonist mode, single injection, HEK T-Rex/natClytin-fCaSR clone K 5.1, MAX dose 60 μg/mL): 4.6 µg/mL
NC(CCC(=O)NC(CS)C(=O)NCC(=O)O)C(=O)O [L-Glutathione, L-Glutathione (γ-Glu-Cys-Gly)] | L-Glutathione (agonist) | – | EC50 (agonist mode, single injection, HEK T-Rex/natClytin-fCaSR clone K 5.1, photoprotein luminescence, tested up to the MAX dose in c1/c2, read-out: Agonist EC50): 8.2 mM
C[C@@H](NCCCc1cccc(C(F)(F)F)c1)c1cccc2ccccc12 [Cinacalcet] | Cinacalcet (PAM) | 0.001 | CaSR agonists and PAMs (mode of action on CaSR) (listed as cinacalcet): activated CaSR as PAMs
Magnesium chloride (hexahydrate) [Magnesium (Mg^2+)] | (agonist) | – | –
NCCCCNCCCN [Spermidine] | Spermidine (agonist) | 1.3 | –
